The target of experiment [1] is T1, Mas-related G-protein coupled receptor member X2 (Homo sapiens, UniProt Q96LB1).
T1 sequence (Q96LB1 whole entry): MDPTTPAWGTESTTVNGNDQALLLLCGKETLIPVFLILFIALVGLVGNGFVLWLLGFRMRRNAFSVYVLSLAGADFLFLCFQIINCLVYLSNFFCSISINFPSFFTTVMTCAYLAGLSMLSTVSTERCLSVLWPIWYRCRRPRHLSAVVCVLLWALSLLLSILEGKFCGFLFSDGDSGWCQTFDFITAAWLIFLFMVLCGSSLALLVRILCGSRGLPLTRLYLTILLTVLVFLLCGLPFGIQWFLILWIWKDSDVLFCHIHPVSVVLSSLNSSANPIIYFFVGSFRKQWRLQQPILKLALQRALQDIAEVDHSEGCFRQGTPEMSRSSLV
The experiment in a line: Intracellular Calcium Mobilization Assay. The note with it: pH 7.4; 30 °C. As for the experimental part:
MRGPRX2 stable cells were maintained in DMEM containing 10% FBS, 100 μg/ml hygromycin B, and 15 μg/ml blasticidin. For the calcium mobilization assay, cells were plated into glass bottomed, poly-L-lysine coated, black 384 well plates at a density of 20,000 cells/well in medium containing 1% dialyzed FBS, 1 μg/ml tetracycline, 100 IU/ml penicillin and 100 μg/ml streptomycin and incubated 24 h. Following tetracycline induction, medium was removed and cells were loaded with 20 μl/well of 1× FLIPR Calcium dye (Molecular Devices) and 2.5 mM probenic acid, for 1 h in a humidified environment at 37 °C with 5% CO2. For mast cell calcium experiments, cells were seeded at a density of 50,000 cells/well in Tyrode's buffer containing 1× calcium dye and incubated for 1 h before treatment and analysis. After dye loading, baseline was measured for 10 s before drug treatment, and then cells were treated with 10 μl of 3× concentrated drug in drug buffer (1× HBSS with 20 mM HEPES and 2.5 mM probenic acid, pH 7.4) in 16 point concentration response curves from 100 μM to 0.003 nM.

The target in experiment [2] is T1, Mas-related G-protein coupled receptor member X2. Description: PRESTO-Tango Assay. The conditions noted are these: pH 7.4; 30 °C. As for the experimental part: HTLA cells (HEK-T cells stably expressing a β-arrestin2-TEV fusion protein and a tTa-dependent luciferase reporter) were maintained in DMEM (Corning) containing 10% FBS, 2 μg/ml puromycin and 100 μg/ml hygromycin B in a humidified atmosphere at 37 °C with 5% CO2. In brief, cells were plated to 50% confluency and transfected with a codon-optimized MRGPRX-Tango construct using the calcium phosphate method53. The next day, transfected cells were transferred to glass-bottomed, poly-L-lysine-coated white 384-well plates at a density of 20,000 cells/well. The following day, cells were treated with 10 μM concentrations of small molecules (in quadruplicate) diluted in drug buffer (1× HBSS with 20 mM HEPES and 0.3% bovine serum albumin, pH 7.4) and incubated for 18-24 h. After drug incubation, medium was removed and 20 μl of Bright-Glo (Promega; diluted 20-fold) was added to each well and incubated 15 min at room temperature.

As to `COc1ccc2c3c1O[C@H]1[C@@H](OC(C)=O)C=C[C@H]4[C@@H](C2)N(C)CC[C@@]341` [6-Acetylcodeine], the results for the half-maximal effective concentration (EC50) in experiment [1] and in experiment [2] were 25 µM and 19 µM, respectively.

With `CC(=O)O[C@H]1C=C[C@H]2[C@H]3Cc4ccc(O)c5c4[C@@]2(CCN3C)[C@H]1O5` [6-Acetylmorphine], the concentration giving a half-maximal response (EC50) in experiment [1] worked out at 21 µM; in experiment [2] it was 12 µM.

`C[C@@H]1C2Cc3ccc(O)cc3[C@]1(C)CCN2` [(6R,11S)-6,11-Dimethyl-1,2,3,4,5,6-hexahydro-2,6-methano-benzo[d]azocin-8-ol]: the EC50 in experiment [2] was 50 µM.

Regarding `C[C@H]1C2Cc3ccc(O)cc3[C@@]1(C)CCN2` [(6S,11R)-6,11-Dimethyl-1,2,3,4,5,6-hexahydro-2,6-methano-benzo[d]azocin-8-ol], the values for the half-maximal effective concentration (EC50) in experiment [1] and in experiment [2] were 13 µM and 14 µM, respectively.

On to `C[C@@H]1[C@@H]2Cc3ccc(O)cc3[C@@]1(C)CCN2C` [(+)-Metazocine], for which the values for the EC50 in experiment [1] and in experiment [2] were 9.3 µM and 7.2 µM, respectively.

Consider `CN1CC[C@@]2(c3cccc(O)c3)Cc3nc4ccccc4cc3C[C@@H]2C1` [(+)-TAN-67], for which the EC50 came to 0.29 µM in experiment [1] and 0.43 µM in experiment [2].

As for `COc1ccc2c(c1)[C@@]13CCCC[C@@H]1[C@@H](C2)N(C)CC3` [Dextromethorphan], the EC50 turned out to be 5.9 µM in experiment [1] and 3.2 µM in experiment [2].

Turning to `CN1CC[C@]23CCCC[C@@H]2[C@H]1Cc1ccc(O)cc13` [Dextrorphan], the figures for the concentration for a half-maximal effect (EC50) in experiment [1] and in experiment [2] were 3.9 µM and 4.2 µM, respectively.

As for `CC[C@H](C)[C@H](NC(=O)[C@H](CCCNC(=N)N)NC(=O)[C@H](CCCNC(=N)N)NC(=O)[C@H](CC(C)C)NC(=O)[C@H](Cc1ccccc1)NC(=O)CNC(=O)CNC(=O)[C@@H](N)Cc1ccc(O)cc1)C(=O)N[C@@H](CCCNC(=N)N)C(=O)N1CCC[C@H]1C(=O)N[C@@H](CCCCN)C(=O)N[C@@H](CC(C)C)C(=O)N[C@@H](CCCCN)C(=O)N[C@@H](Cc1c[nH]c2ccccc12)C(=O)N[C@@H](CC(=O)O)C(=O)N[C@@H](CC(N)=O)C(=O)N[C@@H](CCC(N)=O)C(=O)O` [Dynorphin A (1-17)], the results for the EC50 in experiment [1] and in experiment [2] were 2.3 µM and 21 µM, respectively.

Turning to `CC(C)C[C@H](NC(=O)[C@H](Cc1ccccc1)NC(=O)CNC(=O)CNC(=O)[C@@H](N)Cc1ccc(O)cc1)C(=O)N[C@@H](CCCNC(=N)N)C(=O)N[C@@H](CCCNC(=N)N)C(=O)N[C@@H](CCC(N)=O)C(=O)N[C@@H](Cc1ccccc1)C(=O)N[C@@H](CCCCN)C(=O)N[C@H](C(=O)N[C@H](C(=O)N[C@H](C(=O)O)[C@H](C)O)C(C)C)C(C)C` [Dynorphin B (1-13)], the concentration giving a half-maximal response (EC50) in experiment [1] was found to be 6.5 µM; in experiment [2] it was 33 µM.

Turning to `CN1CC[C@@]23CCCC[C@H]2[C@@H]1Cc1ccc(O)cc13` [Levorphanol], the EC50 in experiment [1] is 13 µM; in experiment [2], 22 µM.

For the compound `CCC(=O)O[C@](Cc1ccccc1)(c1ccccc1)[C@H](C)CN(C)C` [PROPOXYPHENE], the concentration for a half-maximal effect (EC50) in experiment [1] amounted to 32 µM; in experiment [2] it was 15 µM.

`COC1=CC=C2[C@H]3Cc4ccc(OC)c5c4[C@@]2(CCN3C)[C@H]1O5` [Thebaine]: the EC50 in experiment [1] is 76 µM; in experiment [2] it was 11 µM.

A word on the EC50: it is the concentration needed to bring the measured effect to its halfway point.

The values are drawn from BindingDB's records for doi:10.1038/nchembio.2334 (University of North Carolina, 2017).
